Laboratory results from patent US20260306464A1, “LINAPRAZAN GLURATE FOR TREATING GASTROESOPHAGEAL REFLUX DISEASE (GERD)” (Cinclus Pharma Holding AB (publ), priority 2023, published 2026).

Tests used:
[1] = LEED study: endoscopic healing of erosive esophagitis / LA grade improvement after 4 weeks; format: in vivo, human; conditions: lansoprazole 30 mg QD
Text: The severity of esophagitis is typically indicated using the Los Angeles (LA) classification of reflux esophagitis, which is based on an endoscopic assessment of the patient. The LA grade scoring system divides reflux esophagitis into four categories (LA grade A to D) based on the extent of esophageal mucosal breaks. […] LA grade C esophagitis is defined as one or more mucosal breaks that are continuous between the tops of two mucosal folds, but which involves less than 75% of the esophageal circumference. The most severe form, LA grade D esophagitis, is defined as one or more mucosal breaks involving at least 75% of the esophageal circumference (Lundell et al., Gut 1999, vol. 45, p. 172-180).
As used herein, the terms “improvement of the LA grade” and “LA grade improvement” refer to one or more steps from one LA grade to a lower LA grade (such as from grade D to grade C, B or A) or to being healed. In some embodiments, the improvement of the LA grade is 1 step. In some embodiments, the improvement of the LA grade is 2 steps. In some embodiments, the improvement of the LA grade is 3 steps. In some embodiments, the improvement of the LA grade is 4 steps.
The study included patients with erosive esophagitis (eGERD). Patients were divided into two cohorts, one with patients having moderate to severe eGERD (LA grade C/D) and one with patients having milder eGERD (LA grade A/B) with a history of only partial response to PPI-treatment. The primary endpoint of the study was to support dose selection of linaprazan glurate for the phase III program in eGERD, through central assessment of healing of erosive esophagitis after four weeks of treatment. The sample size, i.e., the number of patients needed, for measuring dose related efficacy was based on the patient cohort with moderate to severe eGERD. After initial endoscopy and other screening procedures, 248 patients were randomized equally into one of five treatment groups, receiving either four weeks treatment with linaprazan glurate in four dose levels, or four weeks lansoprazole in the approved standard eGERD healing dose. Thereafter, an endoscopic evaluation of healing was performed, where healing was defined as no presence of esophageal erosions, i.e., no erosive damage to the esophageal mucosa. After the endoscopic evaluation, all patient groups received lansoprazole for four weeks in a maintenance phase. A retrospective central review of the endoscopy findings was performed, and 162 patients were available for evaluation of the primary endpoint. All enrolled 248 patients were included in the safety analysis.
(§1) The study was a randomized, double-blind, active comparator-controlled study with a parallel group design including four arms with linaprazan glurate and one arm with lansoprazole. Pharmacokinetic (PK) blood sampling pre-dose, close before the first and the second dose administration was performed at Day 7, Day 14 and Day 28 visits days in all patients. 248 patients with erosive esophagitis due to GERD LA grade C or D and patients with erosive esophagitis due to GERD LA grade A or B with at least partial symptom response but still endoscopically unhealed after 8 weeks history of standard treatment healing course with PPI, were randomized.
(§2) Randomization to one of the treatments with linaprazan glurate 25 mg, 50 mg, 75 mg, 100 mg twice daily (BID), or lansoprazole 30 mg once daily (QD) was based on a 1:1:1:1:1 scheme. One site could not enroll more than about 20% of the overall number of patients (48 patients per site).
The duration of each patient's participation in the study, including screening, blind treatment period and open-label treatment period, was approximately 60 days. The patients were randomized for 4 weeks (28 days, −2/+5 days) of double-blind treatment and were provided with IMP for 35 days (including one additional blister pack dispensed at Visit 2/Day 0) to allow for treatment up to the visit window. […]

[2] = LEED study: heartburn assessed by mRESQ-eDiary; format: in vivo, human
Text: Relief of reflux-related symptoms may be assessed based on the modified Reflux Symptom Reflux Questionnaire-electronic Diary (mRESQ-eDiary), which is an electronic symptom diary developed for use in partial responders to proton pump inhibitors. mRESQ-eD has three domains (i.e., heartburn, other GERD signs/symptoms and regurgitations/reflux) and eight items (Andrae et al., Clin. Transl. Gastroenterol. 2020, 11(1): e00117).
as §1, §2
The duration of each patient's participation in the study, including screening, blind treatment period and open-label treatment period, was approximately 60 days. The patients were randomized for 4 weeks (28 days, −2/+5 days) of double-blind treatment and were provided with IMP for 35 days (including one additional blister pack dispensed at Visit 2/Day 0) to allow for treatment up to the visit window. […] Following the endoscopic evaluation, all patients received subsequent 4 weeks of open-label treatment with lansoprazole 30 mg QD. Repeated symptom evaluation to detect symptom pattern was assessed during this period.
Four doses of linaprazan glurate (25 mg, 50 mg, 75 mg, 100 mg, and dummies) were administered as tablets twice daily. The active comparator lansoprazole 30 mg and its dummy were administered as capsules once daily in the morning. The study drugs were taken with 100 mL of noncarbonated water at least 30 minutes prior to meals. The duration of double-blind treatment was 28 days −2/+5 days. To blind treatment, each patient received 2 tablets (containing doses of linaprazan glurate (LG) or its dummy) and one capsule (containing lansoprazole or its dummy) in the morning and 2 tablets (containing doses of linaprazan glurate (LG) or its dummy) in the evening, according to the scheme below:
A secondary objective of the study was the safety and tolerability of the four dose levels of linaprazan glurate and lansoprazole, with lansoprazole serving as the active comparator. Another secondary objective of the study was the reflux related symptom pattern during the initial 4 weeks treatment with four dose levels of linaprazan glurate and with lansoprazole, and the symptom pattern during the subsequent additional 4 weeks (weeks 5-8) open-label treatment with lansoprazole 30 mg QD. Heartburn-free 24-hour days and 24-hour days with at most mild heartburn symptoms were assessed based on modified eDiary (mRESQ-eD), including splits into day- and nighttime evaluations.
Reflux related symptoms were assessed based on a modified RESQ-eDiary (mRESQ-eD). Patients were asked to report every 12-hours, once before the morning dose and once before the evening dose of the Investigational Medicinal Product (IMP).

[3] = LEED study: safety and tolerability (adverse events); conditions: TEAE, LAN 30 mg QD
[4] = Dynamic vapour sorption (DVS) analysis; format: physicochemical
Description: In some embodiments, Form 1 of the HCl salt of linaprazan glurate is stable at a relative humidity up to 90% at a temperature of 25° C.

[5] = week 4, erosive patients all LA grades, LAN 30 mg QD (N = 20)

## Cc1c(OCC(F)(F)F)ccnc1C[S+]([O-])c1nc2ccccc2[nH]1 (centres unmarked) [lansoprazole, reference compound]
[1]; LA grade A/B
  four-week healing rate: 81%
[1]; LA grade A/B/C/D, 4 weeks, FIG. 8
  healing rate: 69%
[1]; LA grade C/D, 4 weeks, FIG. 5
  mean LA grade improvement: 2.1
[1]; LA grade C/D
  four-week healing rate: 38%
[2]; FAS Erosive, first week, morning and evening, lansoprazole 30 mg QD
  heartburn severity, rank among groups: highest heartburn severity
[2]; FAS, first week, morning and evening, lansoprazole 30 mg QD
  severity grade of heartburn, rank among groups: highest severity grade of heartburn
[2]; LA Grade A/B, week 4, lansoprazole 30 mg QD
  heartburn-free days, rank among groups: most heartburn-free days
[2]; LA Grade A/B, week 6 open-label, lansoprazole group
  heartburn-free days, rank among groups: highest
[2]; LA Grade C/D, week 2-4, lansoprazole 30 mg QD
  heartburn-free days, rank among groups: lowest percentage of heartburn-free days
[2]; LA Grade C/D, week 5-8 open-label, lansoprazole group
  heartburn-free days, rank among groups: lowest percentage of heartburn-free days
[2]; [5]
  % at most mild symptoms 24-hour days (mean): 88%
  % heartburn-free 24-hour days (mean): 52%
  Patients (%) totally free from heartburn: 32%
  Patients (%) with at most mild heartburn: 79%
  Patients (%) with non-mild heartburn: 21%
[3]
  COVID-19 (%): 4.0%
  COVID-19 events: 2 events
  Constipation (%): 0.0%
  Constipation events: 0 events
  Headache (%): 2.0%
  Headache events: 1 events
  Nausea (%): 8.0%
  Nausea events: 4 events

## Cc1cccc(C)c1CNc1cc(C(=O)NCCOC(=O)CCCC(=O)O)cn2c(C)c(C)nc12
[4]; 90% RH
  water uptake: about 0.2%
[4]; about 30% to about 80% RH
  water content of the crystals on humidity changes: remains substantially constant
[4]; dynamic vapour sorption
  hygroscopicity: very low hygroscopicity
